{"source": "patent US20240245680A1", "about": "“Methods of Treating Retinal Vasculopathies” (Unity Biotechnology, Inc., priority 2021, published 2024)", "key": {"[1]": {"test_system": "ATF4 protein expression in retina", "experiment": "Retinal ATF4 protein immunoblot after IP dosing, adult retinas", "assay_type": "in vivo, mouse", "conditions": "IP 30 and 60 mpk, adult retinas 4 hours post administration, immunoblot vs Actinin (FIG. 11C)", "protocol": "Intraperitoneally administered Compound 39 activated ATF4 protein expression at 30 and 60 mpk. Adult eye retinas were dissected 4 hours post Compound 39 administration and the harvested samples were kept on ice and homogenized using Precellys™ (500 μL tubes) tissue homogenizer in 300 μL MSD Tris Lysis buffer containing Pierce Protease Inhibitor Complete Mini tablet (ThermoScientific™ A32963). Homogenized samples were then centrifuged to separate supernatant from debris. Lysates were separated by SDS-PAGE and immunoblotted for ATF4 (D4B8) and control protein Actinin (Cell Signaling, cat. 3134S)."}, "OIR mouse model": {"test_system": "OIR mouse model", "experiment": "Oxygen-induced retinopathy (OIR) mouse model, retinal flatmounts at P17", "assay_type": "in vivo", "conditions": "OIR pups, two 90 mpk intraperitoneal doses (P12 and P14), read at P17 (FIG. 14A, 15B)", "text": "The OIR model is based on the exposure of mouse pups to hyperoxia during a phase when their retinal vasculature is still developing. This leads to capillary depletion, and upon return to room air, results in retinal ischemia and proliferative vascular disease in the retinal vasculature or oxygen-induced retinopathy.\nC57BL/6J pups at postnatal day 7 (P7) are housed in a hyperoxic chamber (75% O2) for 5 days (n=10 per cage) leading to vessel regression in the center of the retina. CD-1 fostering mothers are rotated before and 2-3 days after entering the chamber. […]\nRetinas are dissected and incubated overnight with rhodamine-labeled lectin from Bandeiraea simplicifolia (Griffonia simplicifolia) (1:100) in 1 mM CaCl2) in PBS to visualize vaso-obliterated (VO) or neovascular (NV) areas. […] Images can be analyzed on Visiopharm® to determine % VO or % NV of total retina. […]\nAvascular areas and areas of neovascularization were quantified after harvest and staining of retinal flatmounts at P17 in the model.\nOIR pups were treated with intraperitoneal injection of 90 mpk Compound 39 at P12, then these pups were removed to room air with their nursing mothers, repeat dosed at P14, and were sacrificed at P17. […] To determine avascular or neovascular areas, retinas were flatmounted, and stained with isolectin B4 (IB4) for fluorescence microscopy. […]"}, "DDIT3 expression": {"test_system": "DDIT3 expression", "experiment": "DDIT3 gene expression (qPCR) in HRMEC", "assay_type": "cell-based, human", "conditions": "five hours, quarter-log dilutions from 10 μM, qPCR (FIG. 10C)", "protocol": "Primary Human Retinal Microvascular Endothelial Cells (HRMEC—Cell Systems™ Corp., ACBRI 181; Lot #181.04.02.02.02) were cultured in Vascular Cell Basal Medium (ATCC® Lot 90909277) with Endothelial Cell Growth Kit-VEGF (ATCC Lot 80720201) with additional FBS added to a final concentration of 5% FBS. Cells were seeded in a 96-well plate at near confluency and treated the next day with Compound 39 for five hours. A dose response was generated using quarter-log dilutions using 10 μM as the starting concentration. Following treatment, RNA was extracted using the RNeasy® 96-Kit (Qiagen®), and cDNA was next generated using Superscript™ IV VILO™ Master Mix (Thermofisher®). qPCR was performed using standard TaqMan® reagents and conditions. DDTI3 gene expression was detected using primer Hs00358796_g1 and Tbp was used as a control gene using primer (Hs99999910_m1). Peak activation of DDIT3 expression was detected at ˜250 nM Compound 39."}, "[2]": {"test_system": "p-eIF2a, ATF4, DDIT3 (CHOP)", "experiment": "Immunoblot of p-eIF2a, ATF4 and DDIT3 in mouse embryonic fibroblasts", "assay_type": "cell-based", "conditions": "MEF cells, 250 nM, five hours, immunoblot (FIG. 10B)", "protocol": "Next, mouse embryonic fibroblasts (MEF) cells were cultured to near confluency and treated for five hours with a fixed concentration (250 nM) of Compound 39. Cells were harvested in LSD lysis buffer and homogenates were separated by SDS-PAGE. Immunoblotting was performed overnight using antibodies targeting p-eIF2a (Clone D9G8), ATF4 (Clone D4B8), and DNA damage inducible transcript 3 (DDIT3) (Clone 9C8). Compound 39 treatment increases the levels of phospho-eIF2a (p-eIF2a) as well as ATF4 and DDIT3 (CHOP)."}, "[3]": {"test_system": "ATF4, p-eIF2a, HIF1α protein in retina", "experiment": "Retinal immunoblot of ATF4, p-eIF2a and HIF1α after IP dosing, normoxic and OIR retinas", "assay_type": "in vivo, mouse", "conditions": "IP 30 mpk, 4 hours after administration, OIR neonates, immunoblot (FIG. 13)", "protocol": "Normoxic and OIR eye retinas were dissected 4 hours after Compound 39 administration and the harvested samples were kept on ice and homogenized using Precellys (500 μL tubes) tissue homogenizer in 300 μL LSD Sample/Lysis buffer. Homogenized samples were then centrifuged to separate supernatant from debris. Lysates were separated by SDS-PAGE and immunoblotted for ATF4 (D4B8), p-eIF2a (D9G8), and HIF1α (Novus™, cat. NB100-449) and control protein Actinin (Cell Signaling™, cat. 3134S)."}, "GCN2": {"test_system": "GCN2", "experiment": "DDIT3 gene expression (qPCR) in GCN2 knockout, PERK knockout and WT cells", "assay_type": "cell-based", "conditions": "GCN2 knockout, 250 nM, five hours, qPCR (FIG. 10D)", "protocol": "To determine if DDIT3 activation by Compound 39 is dependent on GCN2 activation, rather than PERK, the following experiment was performed. GCN2 knockout cells (CRL-2978™), PERK knockout cells (CRL-2976™), or WT controls cells (ATCC CRL-2977™) were cultured to near confluency and treated for five hours with a fixed concentration (250 nM) of Compound 39. Following treatment, RNA was extracted using the RNeasy® 96-Kit (Qiagen), and cDNA was next generated using Superscript™ IV VILO™ Master Mix (Thermofisher®). qPCR was performed using standard TaqMan reagents and conditions. DDIT3 gene expression was detected using primer Hs00358796_g1 and Tbp was used as a control gene using primer (Hs99999910_m1)."}}, "note": "Entries after “also recorded” stand apart in the source; their conditions may differ."}
{"smiles": "CNc1nc2ccc(-c3c(C)ccc(C(=O)c4c(-c5ccccc5)n(C)n(-c5ccccc5)c4=O)c3N)cc2s1", "note": "[Compound 39, 4-(2-Amino-4-methyl-3-(2-(methylamino)benzo[d]thiazol-6-yl)benzoyl)-1-methyl-2,5-diphenyl-1H-pyrazol-3(2H)-one]", "values": [{"measurement": "levels of ATF4 protein in retina", "setting": "[1]", "value": "increased"}, {"measurement": "neovascularization", "setting": "OIR mouse model", "value": "significant reversal; also recorded: significantly suppressed"}, {"measurement": "concentration of peak activation of DDIT3 expression", "setting": "DDIT3 expression", "value": "~250", "unit": "nM"}, {"measurement": "levels of ATF4", "setting": "[2]", "value": "increases"}, {"measurement": "levels of DDIT3 (CHOP)", "setting": "[2]", "value": "increases"}, {"measurement": "levels of phospho-eIF2a (p-eIF2a)", "setting": "[2]", "value": "increases"}, {"measurement": "HIF1α protein levels in retina", "setting": "[3]", "value": "downregulated"}, {"measurement": "levels of ATF4 protein in retina", "setting": "[3]", "value": "increased"}, {"measurement": "phospho-eIF2α levels in retina", "setting": "[3]", "value": "increased"}, {"measurement": "dependence of DDIT3 induction on GCN2 or PERK", "setting": "GCN2", "value": "dependent on GCN2 but not PERK"}]}
